Experiments:
Format in all cases: in vivo, LDLR KO mice
ANGPTL3 gene [1] = test: Example 14: RNAi agent and statin, serum LDL in LDLR knockout mice; details: for Avg LDL normalized to pre-treatment: no injection
Source text: (§1) To evaluate the effect of co-administration of RNAi agents and statins in a disease model, LDLR KO mice were commercially obtained (The Jackson Laboratory). For three weeks prior to the onset of the study, forty-one (41) male 7 to 8 week old LDLR KO mice were placed on a high fat (“western”) diet (Teklad Custom Diets TD.88137), and remained on that diet throughout the duration of the study. Pre-dose serum samples were taken on study Day 1 after a four hour fast. The dosing regimen for the study is recited in the following Table 72:
(§2) • Mice were treated at 40 mg/kg for the first 11 days, then switched to 20 mg/kg thereafter.
(§3) The vehicle used for the oral gavage in the study was a 1:1 mixture of Ora-Plus®: Ora-Sweet® solution, which were acquired commercially. For the preparation of the atorvastatin oral gavage administrations, the respective desired dose of atorvastatin was first dissolved in sterile water (0.3 mL water per 1 mL of desired formulation) and vortexed until smooth, followed by the addition of a mixture of 1:1 Ora-Plus®: Ora-Sweet® solution (0.7 mL vehicle per 1 mL of desired formulation) and vortexed. On day 1 and for each day thereafter an oral gavage dose was administered for each of the Groups except for Group 2. On Day 23, Groups 1, 2, 3, and 4 received a single subcutaneous administration of 2.5 mg/kg dose ([…] solution) of an ANGPTL3 RNAi agent in D5W (dextrose in 5% water), or vehicle control (D5W) with no RNAi agent.
(§4) The RNAi agent tested (AD05488) included a modified sequence and an N-acetyl-galactosamine-containing targeting ligand conjugated to the 5′ terminal end of the sense strand. (See Tables 3, 4, and 5 for modified sequences and targeting ligand structures). The injections were performed between the skin and muscle (i.e. subcutaneous injections) into the loose skin over the neck and shoulder area. Serum was collected on days 8, 15, 22 (pre-RNAi agent injection), 29, 36, 43, and 50. LDLR KO mice were fasted for four hours prior to each collection.
(§5) ANGPTL3 protein levels in serum were measured by ELISA assay (R&D Systems), according to the manufacturer's recommendations. Among other biomarkers, triglycerides, total cholesterol, and low-density lipoprotein (LDL) in serum were measured on a Cobas® Integra 400 (Roche Diagnostics), according to the manufacturer's recommendations.
(§6) The ANGPTL3 protein levels, triglyceride levels, total cholesterol levels, HDL levels, and LDL levels for each animal were normalized. For normalization, respective levels of ANGPTL3 protein, TG, total cholesterol, or LDL for each animal at a time point was divided by the pre-treatment level of expression in that animal (in this case pre-dose levels on Day 1) to determine the ratio of expression “normalized to pre-treatment.” Data from the study set forth in this Example are shown in the following Tables 73-76: […]

ANGPTL3 gene [2] = test: Example 14: RNAi agent and statin, serum triglycerides in LDLR knockout mice; details: for Avg TG normalized to pre-treatment: no injection
Source text: as §1, §2, §3, §4, §5, §6

ANGPTL3 gene [3] = test: Example 14: RNAi agent and statin, serum total cholesterol in LDLR knockout mice; details: for Avg Total Chol normalized to pre-treatment: no injection
Source text: as §1, §2, §3, §4, §5, §6

ANGPTL3 protein = test: Example 14: RNAi agent and statin, serum ANGPTL3 protein by ELISA in LDLR knockout mice; details: no injection
Source text: as §1, §2, §3, §4, §5, §6

[4] = Group 5: 10 mg/kg daily oral gavage atorvastatin, Day 8
[5] = Group 5: 10 mg/kg daily oral gavage atorvastatin, Day 15
[6] = Group 5: 10 mg/kg daily oral gavage atorvastatin, Day 22
[7] = Group 5: 10 mg/kg daily oral gavage atorvastatin, Day 29
[8] = Group 5: 10 mg/kg daily oral gavage atorvastatin, Day 36
[9] = Group 5: 10 mg/kg daily oral gavage atorvastatin, Day 43
[10] = Group 5: 10 mg/kg daily oral gavage atorvastatin, Day 50
[11] = Group 6: 20 mg/kg* daily oral gavage atorvastatin (40 mg/kg first 11 days), Day 8
[12] = Group 6: 20 mg/kg* daily oral gavage atorvastatin (40 mg/kg first 11 days), Day 15
[13] = Group 6: 20 mg/kg* daily oral gavage atorvastatin (40 mg/kg first 11 days), Day 22
[14] = Group 6: 20 mg/kg* daily oral gavage atorvastatin (40 mg/kg first 11 days), Day 29
[15] = Group 6: 20 mg/kg* daily oral gavage atorvastatin (40 mg/kg first 11 days), Day 36
[16] = Group 6: 20 mg/kg* daily oral gavage atorvastatin (40 mg/kg first 11 days), Day 43
[17] = Group 6: 20 mg/kg* daily oral gavage atorvastatin (40 mg/kg first 11 days), Day 50
[18] = daily atorvastatin by oral gavage, LDLR KO mice on high fat diet

## CC(C)c1c(C(=O)Nc2ccccc2)c(-c2ccccc2)c(-c2ccc(F)cc2)n1CC[C@@H](O)C[C@@H](O)CC(=O)O [atorvastatin, reference compound]
ANGPTL3 gene [1]; [4]
  Avg LDL normalized to pre-treatment: 0.778
ANGPTL3 gene [1]; [5]
  Avg LDL normalized to pre-treatment: 0.695
ANGPTL3 gene [1]; [6]
  Avg LDL normalized to pre-treatment: 0.861
ANGPTL3 gene [1]; [7]
  Avg LDL normalized to pre-treatment: 0.881
ANGPTL3 gene [1]; [8]
  Avg LDL normalized to pre-treatment: 0.996
ANGPTL3 gene [1]; [9]
  Avg LDL normalized to pre-treatment: 0.929
ANGPTL3 gene [1]; [10]
  Avg LDL normalized to pre-treatment: 0.872
ANGPTL3 gene [1]; [11]
  Avg LDL normalized to pre-treatment: 0.490
ANGPTL3 gene [1]; [12]
  Avg LDL normalized to pre-treatment: 0.556
ANGPTL3 gene [1]; [13]
  Avg LDL normalized to pre-treatment: 0.687
ANGPTL3 gene [1]; [14]
  Avg LDL normalized to pre-treatment: 0.700
ANGPTL3 gene [1]; [15]
  Avg LDL normalized to pre-treatment: 0.716
ANGPTL3 gene [1]; [16]
  Avg LDL normalized to pre-treatment: 0.689
ANGPTL3 gene [1]; [17]
  Avg LDL normalized to pre-treatment: 0.687
ANGPTL3 gene [1]; [18]
  reduction in LDL: 30-45%
ANGPTL3 gene [2]; [4]
  Avg TG normalized to pre-treatment: 0.667
ANGPTL3 gene [2]; [5]
  Avg TG normalized to pre-treatment: 0.601
ANGPTL3 gene [2]; [6]
  Avg TG normalized to pre-treatment: 1.086
ANGPTL3 gene [2]; [7]
  Avg TG normalized to pre-treatment: 0.803
ANGPTL3 gene [2]; [8]
  Avg TG normalized to pre-treatment: 0.958
ANGPTL3 gene [2]; [9]
  Avg TG normalized to pre-treatment: 0.862
ANGPTL3 gene [2]; [10]
  Avg TG normalized to pre-treatment: 0.977
ANGPTL3 gene [2]; [11]
  Avg TG normalized to pre-treatment: 0.477
ANGPTL3 gene [2]; [12]
  Avg TG normalized to pre-treatment: 0.362
ANGPTL3 gene [2]; [13]
  Avg TG normalized to pre-treatment: 0.505
ANGPTL3 gene [2]; [14]
  Avg TG normalized to pre-treatment: 0.552
ANGPTL3 gene [2]; [15]
  Avg TG normalized to pre-treatment: 0.598
ANGPTL3 gene [2]; [16]
  Avg TG normalized to pre-treatment: 0.603
ANGPTL3 gene [2]; [17]
  Avg TG normalized to pre-treatment: 0.677
ANGPTL3 gene [2]; [18]
  reduction in triglycerides: 40-60%
ANGPTL3 gene [3]; [4]
  Avg Total Chol normalized to pre-treatment: 0.821
ANGPTL3 gene [3]; [5]
  Avg Total Chol normalized to pre-treatment: 0.774
ANGPTL3 gene [3]; [6]
  Avg Total Chol normalized to pre-treatment: 0.980
ANGPTL3 gene [3]; [7]
  Avg Total Chol normalized to pre-treatment: 0.943
ANGPTL3 gene [3]; [8]
  Avg Total Chol normalized to pre-treatment: 1.105
ANGPTL3 gene [3]; [9]
  Avg Total Chol normalized to pre-treatment: 0.998
ANGPTL3 gene [3]; [10]
  Avg Total Chol normalized to pre-treatment: 0.987
ANGPTL3 gene [3]; [11]
  Avg Total Chol normalized to pre-treatment: 0.586
ANGPTL3 gene [3]; [12]
  Avg Total Chol normalized to pre-treatment: 0.620
ANGPTL3 gene [3]; [13]
  Avg Total Chol normalized to pre-treatment: 0.767
ANGPTL3 gene [3]; [14]
  Avg Total Chol normalized to pre-treatment: 0.761
ANGPTL3 gene [3]; [15]
  Avg Total Chol normalized to pre-treatment: 0.825
ANGPTL3 gene [3]; [16]
  Avg Total Chol normalized to pre-treatment: 0.767
ANGPTL3 gene [3]; [17]
  Avg Total Chol normalized to pre-treatment: 0.807
ANGPTL3 gene [3]; [18]
  reduction in total cholesterol: 23-40%
ANGPTL3 protein; [4]
  Avg ANGPTL3 normalized to pre-treatment: 1.577
ANGPTL3 protein; [5]
  Avg ANGPTL3 normalized to pre-treatment: 1.839
ANGPTL3 protein; [6]
  Avg ANGPTL3 normalized to pre-treatment: 1.693
ANGPTL3 protein; [7]
  Avg ANGPTL3 normalized to pre-treatment: 1.764
ANGPTL3 protein; [8]
  Avg ANGPTL3 normalized to pre-treatment: 1.851
ANGPTL3 protein; [9]
  Avg ANGPTL3 normalized to pre-treatment: 1.758
ANGPTL3 protein; [10]
  Avg ANGPTL3 normalized to pre-treatment: 1.878
ANGPTL3 protein; [11]
  Avg ANGPTL3 normalized to pre-treatment: 1.553
ANGPTL3 protein; [12]
  Avg ANGPTL3 normalized to pre-treatment: 1.924
ANGPTL3 protein; [13]
  Avg ANGPTL3 normalized to pre-treatment: 1.871
ANGPTL3 protein; [14]
  Avg ANGPTL3 normalized to pre-treatment: 1.767
ANGPTL3 protein; [15]
  Avg ANGPTL3 normalized to pre-treatment: 1.981
ANGPTL3 protein; [16]
  Avg ANGPTL3 normalized to pre-treatment: 1.935
ANGPTL3 protein; [17]
  Avg ANGPTL3 normalized to pre-treatment: 1.847
